This is an account of results in patent EP2019099A1, “Dpp-IV inhibitors” (Santhera Pharmaceuticals (Schweiz) AG, priority 2007, dated 2009).

The target of this assay is T1, DPP-IV (Homo sapiens, UniProt P27487).
T1 construct: Soluble human DPP-IV lacking the transmembrane anchor (Gly31-Pro766); Pre-Pro-alpha-mating factor leader (secretion fusion) (N, cleaved yes); made in house
T1 sequence (P27487 31-766): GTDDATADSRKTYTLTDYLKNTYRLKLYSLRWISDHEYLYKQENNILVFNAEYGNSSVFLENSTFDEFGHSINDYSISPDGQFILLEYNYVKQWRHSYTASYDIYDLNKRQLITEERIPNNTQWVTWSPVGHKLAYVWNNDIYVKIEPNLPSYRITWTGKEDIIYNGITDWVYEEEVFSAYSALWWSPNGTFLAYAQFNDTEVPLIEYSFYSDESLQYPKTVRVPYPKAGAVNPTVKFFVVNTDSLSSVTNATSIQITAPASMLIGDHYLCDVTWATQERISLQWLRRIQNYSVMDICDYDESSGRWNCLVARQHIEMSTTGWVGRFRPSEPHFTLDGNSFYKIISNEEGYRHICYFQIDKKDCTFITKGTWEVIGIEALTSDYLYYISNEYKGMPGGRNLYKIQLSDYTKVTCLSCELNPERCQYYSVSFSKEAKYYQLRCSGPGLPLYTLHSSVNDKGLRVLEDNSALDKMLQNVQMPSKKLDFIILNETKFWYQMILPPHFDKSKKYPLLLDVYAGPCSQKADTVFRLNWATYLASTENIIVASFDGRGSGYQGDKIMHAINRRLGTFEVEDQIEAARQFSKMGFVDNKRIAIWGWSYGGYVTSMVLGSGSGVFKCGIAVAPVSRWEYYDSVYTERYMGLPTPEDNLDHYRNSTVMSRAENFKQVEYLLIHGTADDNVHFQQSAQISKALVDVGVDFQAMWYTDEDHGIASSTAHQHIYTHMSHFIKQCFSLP
Description: Inhibition of DPP-IV peptidase activity, continuous fluorimetric assay (Gly-Pro-AMC cleavage). To be noted: 50 pM DPP-IV, 16 µM substrate Gly-Pro-AMC, pH 7.4, 25 °C, values grouped in 2 classes. Type of assay: biochemical, human and porcine. The procedure: Inhibition of DPP-IV peptidase activity was monitored with a continuous fluorimetric assay. This assay is based on the cleavage of the substrate Gly-Pro-AMC (Bachem) by DPP-IV, releasing free AMC. The assay is carried out in 96-well microtiterplates. In a total volume of 100 µL, compounds are preincubated with 50 pM DPP-IV employing a buffer containing 10mM Hepes, 150mM NaCl, 0.005% Tween 20 (pH 7.4). The reaction is started by the addition of 16 µM substrate and the fluorescence of liberated AMC is detected for 10 minutes at 25 °C with a fluorescence reader (BMG-Fluostar; BMG-Technologies) using an excitation wavelength of 370 nm and an emission wavelength of 450 nm. The final concentration of DMSO is 1 %. The inhibitory potential of the compounds were determined.
Soluble human DPP-IV lacking the transmembrane anchor (Gly31-Pro766) was expressed in a recombinant YEAST-strain as Pre-Pro-alpha-mating fusion. The secreted product (rhuDPP-IV-Gly31-Pro766) was purified from fermentation broth (>90% purity).
In table 1 are listed the IC50 values for inhibition of DPP-IV peptidase activity determined in assays as described above. The IC50 values were grouped in 2 classes: a ≤ 100 nM; b ≥101 nM and ≤ 1000 nM.
In the case of `Cc1ncc(C(=O)N2CCC([C@H](N)Cc3cc(F)c(F)cc3F)CC2)c(C)n1` [Example 1, {4-[(R)-1-Amino-2-(2,4,5-trifluoro-phenyl)-ethyl]-piperidin-1-yl}-(2,4-dimethyl-pyrimidin-5-yl)-methanone], the IC50 – broadly, the point on the concentration scale where inhibition reaches its midpoint – was not above 100 nM.
The figure for `Cc1nc(C(F)(F)F)ncc1C(=O)N1CCC([C@H](N)Cc2cc(F)c(F)cc2F)CC1` [Example 2, {4-[(R)-1-Amino-2-(2,4,5-trifluoro-phenyl)-ethyl]-piperidin-1-yl}-(4-methyl-2-trifluoromethylpyrimidin-5-yl)-methanone] is not above 100 nM; for `N[C@H](Cc1cc(F)c(F)cc1F)C1CCN(C(=O)c2cnc(C(F)(F)F)nc2C2CC2)CC1` [Example 4] it is not above 100 nM; for `CC(C)c1ncc(C(=O)N2CCC([C@H](N)Cc3cc(F)c(F)cc3F)CC2)c(C2CC2)n1` [Example 5] it is not above 100 nM.
`Cc1ncc(C(=O)N2CCC([C@H](N)Cc3cc(F)c(F)cc3F)CC2)c(C(F)(F)F)n1` [Example 6] yielded an IC50 not above 100 nM.
The figure for `Cc1nc(N)ncc1C(=O)N1CCC([C@H](N)Cc2cc(F)c(F)cc2F)CC1` [Example 7] is not above 100 nM; for `N[C@H](Cc1cc(F)c(F)cc1F)C1CCN(C(=O)c2cnc(-c3ccccn3)nc2C(F)(F)F)CC1` [Example 8] it is not above 100 nM; for `Cc1nc(-c2ccccc2)ncc1C(=O)N1CCC([C@H](N)Cc2cc(F)c(F)cc2F)CC1` [Example 9] it is not above 100 nM.
